Assay results: patent US6506766B1 (Abbott Laboratories, priority 1998, dated 2003)

How the values were obtained:
[1] = molecular target: T1, human progesterone receptor-A [PRA] isoform (Homo sapiens, UniProt P06401); experiment: Radioligand binding with human progesterone receptor cytosol ([3H]-progesterone competition); details: PRA cytosol expressed in insect SF21 cells, [3H]Prog ~0.8 nM, 4° C. overnight; Ki by Cheng-Prusoff, KL ~4.5 nM; read-out: Ki (nM) PR
T1 construct: host or cells: insect SF21 cells (baculovirus)
T1 sequence (P06401 1-769 isoform P06401-2): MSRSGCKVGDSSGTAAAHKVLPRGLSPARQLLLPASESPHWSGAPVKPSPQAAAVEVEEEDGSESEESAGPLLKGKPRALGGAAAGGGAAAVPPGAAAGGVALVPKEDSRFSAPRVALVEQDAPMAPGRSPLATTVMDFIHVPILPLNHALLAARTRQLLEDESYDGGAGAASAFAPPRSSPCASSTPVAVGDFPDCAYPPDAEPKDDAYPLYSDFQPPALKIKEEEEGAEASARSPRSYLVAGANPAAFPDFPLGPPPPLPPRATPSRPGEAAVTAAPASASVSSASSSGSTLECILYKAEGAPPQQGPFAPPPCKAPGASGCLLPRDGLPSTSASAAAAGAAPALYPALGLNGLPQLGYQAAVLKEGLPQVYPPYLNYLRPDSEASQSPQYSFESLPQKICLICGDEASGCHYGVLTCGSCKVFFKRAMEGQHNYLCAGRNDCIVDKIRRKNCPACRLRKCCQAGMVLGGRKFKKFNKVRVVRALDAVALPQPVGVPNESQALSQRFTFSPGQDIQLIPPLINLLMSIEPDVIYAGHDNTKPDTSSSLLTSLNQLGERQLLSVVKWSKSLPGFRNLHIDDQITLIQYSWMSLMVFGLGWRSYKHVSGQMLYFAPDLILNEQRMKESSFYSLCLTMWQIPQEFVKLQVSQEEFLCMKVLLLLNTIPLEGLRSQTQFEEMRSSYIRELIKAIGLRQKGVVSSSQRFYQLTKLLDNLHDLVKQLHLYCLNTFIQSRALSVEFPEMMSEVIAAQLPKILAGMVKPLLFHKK

[2] = molecular target: T2, human glucocorticoid receptor-α [GRX] isoform (Homo sapiens, UniProt P04150); experiment: Radioligand binding with human glucocorticoid receptor cytosol ([3H]-dexamethasone competition); details: GRX cytosol expressed in insect SF21 cells, [3H]-Dex ~0.9 nM, 4° C. overnight; Ki by Cheng-Prusoff, KL ~[…]; read-out: Ki (nM) GR
T2 construct: host or cells: insect SF21 cells (baculovirus)
T2 sequence (P04150 1-777): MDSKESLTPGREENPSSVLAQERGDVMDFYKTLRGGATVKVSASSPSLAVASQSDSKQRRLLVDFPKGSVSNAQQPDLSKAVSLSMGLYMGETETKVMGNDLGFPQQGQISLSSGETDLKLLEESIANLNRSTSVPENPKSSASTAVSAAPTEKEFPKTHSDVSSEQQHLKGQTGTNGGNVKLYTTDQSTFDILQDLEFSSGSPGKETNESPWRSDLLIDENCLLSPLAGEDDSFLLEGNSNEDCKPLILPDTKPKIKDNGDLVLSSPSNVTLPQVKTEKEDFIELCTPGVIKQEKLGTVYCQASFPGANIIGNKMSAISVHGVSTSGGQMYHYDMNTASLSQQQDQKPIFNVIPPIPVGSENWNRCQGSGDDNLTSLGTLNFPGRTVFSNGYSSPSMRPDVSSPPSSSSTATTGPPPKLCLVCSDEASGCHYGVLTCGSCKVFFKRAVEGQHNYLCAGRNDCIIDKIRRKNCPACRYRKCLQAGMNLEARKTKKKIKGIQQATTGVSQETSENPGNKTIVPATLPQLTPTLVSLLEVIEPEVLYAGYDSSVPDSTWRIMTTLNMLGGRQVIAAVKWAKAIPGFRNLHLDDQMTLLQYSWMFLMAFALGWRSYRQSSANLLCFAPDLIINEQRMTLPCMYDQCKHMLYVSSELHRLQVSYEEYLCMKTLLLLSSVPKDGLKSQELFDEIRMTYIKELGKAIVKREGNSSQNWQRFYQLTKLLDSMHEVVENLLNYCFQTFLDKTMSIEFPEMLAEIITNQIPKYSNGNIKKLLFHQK

`COCC1=C[C@H]([C@@H]2Oc3ccc(O)c(OC)c3-c3ccc4c(c32)C(C)=CC(C)(C)N4)CCC1` (relative stereo) [Example 244, rel-(5S,3′R)-9-Hydroxy-5-[1-methoxymethyl-3-cyclohexenyl]-10-methoxy-2,2,4-trimethyl-2,5-dihydro-1H-[1]benzopyrano[3,4-f]quinoline] was tested, and the Ki [1] was 804 nM and the Ki [2] was 6.3 nM.
For `COc1cccc2c1-c1ccc3c(c1C(c1ccccc1)O2)C(C)=CC(C)(C)N3` (single isomer, unassigned) [Example 25, (±)-2,5-Dihydro-10-methoxy-2,2,4-trimethyl-5-phenyl-1H-[1]benzopyrano-[3,4-f]quinoline], the Ki [1] was ≥ 10000 nM and the Ki [2] was 240 nM.
With `COc1cccc2c1-c1ccc3c(c1C(c1ccccc1)O2)C(C)=CC(C)(C)N3` (single isomer, unassigned) [Example 26, (±)-2,5-Dihydro-10-methoxy-2,2,4-trimethyl-5-phenyl-1H-[1]benzopyrano[3,4-f]quinoline] the Ki [1] was 13400 nM and the Ki [2] was 2.1 nM.
With `COc1cccc2c1-c1ccc3c(c1C(C1CCCCC1=O)O2)C(C)=CC(C)(C)N3` (single isomer, unassigned) [Example 142, 2,5-Dihydro-10-methoxy-5-(1-oxo-2-cyclohexyl)-2,2,4-trimethyl-1H-[1]benzopyrano[3,4-f]quinoline] the Ki [1] was ≥ 10000 nM and the Ki [2] was 51 nM.
In the case of `COC(=O)C1=CC(C2Oc3ccc(O)c(OC)c3-c3ccc4c(c32)C(C)=CC(C)(C)N4)CCC1` (single isomer, unassigned) [Example 288], the Ki [1] is reported as 4080 nM and the Ki [2] is reported as 0.86 nM.
`COC(=O)C1=CC(C2Oc3ccc(O)c(OC)c3-c3ccc4c(c32)C(C)=CC(C)(C)N4)CCC1` (single isomer, unassigned) [Example 415] was tested, and the Ki [1] was 3740 nM and the Ki [2] was 9.9 nM.
For `C=CCC1Oc2cccc(OC)c2-c2ccc3c(c21)C(C)=CC(C)(C)N3` (single isomer, unassigned; (+)) [Example 37, (+)-2,5-Dihydro-10-methoxy-2,2,4-trimethyl-5-(2-propenyl)-1H-[1]benzopyrano[3,4-f]quinoline], the Ki [1] was ≥ 10000 nM and the Ki [2] was 20 nM.
For `COc1c(O)ccc2c1-c1ccc3c(c1C(C1C=CCCC1)O2)C(C)=CC(C)(C)N3` (single isomer, unassigned; (+)) [Example 284], the Ki [1] was 2100 nM and the Ki [2] was 110 nM.
`C=CCC1Oc2cccc(OC)c2-c2ccc3c(c21)C(C)=CC(C)(C)N3` (single isomer, unassigned; (-)) [Example 36, (−)2,5-Dihydro-10-methoxy-2,2,4-trimethyl-5-(2-propenyl)-1H-[1]benzopyrano[3,4-f]quinoline] showed a Ki [1] of 1700 nM and a Ki [2] of 1.4 nM.
Work on `COc1c(O)ccc2c1-c1ccc3c(c1[C@H](C1(C)CC=CCC1)O2)C(C)=CC(C)(C)N3` (single isomer, unassigned; (-)) [Example 238] yielded a Ki [1] of 11.5 nM and a Ki [2] of 1.2 nM.
Molecule `CC1=CC(C)(C)Nc2ccc3c(c21)C(C1CCCC1)Oc1ccc(O)c(Cl)c1-3` (single isomer, unassigned; (-)) [Example 422, (−)2,5-Dihydro-9-hydroxy-10-chloro-2,2,4-trimethyl-5-cyclopentyl-1H-[1]benzopyrano[3,4-f]quinoline] has a Ki [1] of 2.9 nM and a Ki [2] of 0.28 nM.
`COc1cccc2c1-c1ccc3c(c1[C@@H](C1CCCOC1=O)O2)C(C)=CC(C)(C)N3` (stereo in doubt) [Example 134, rel (5R,2′R) 2,5-Dihydro-10-methoxy-5-(2-oxo-3-tetrahydropyranyl)-2,2,4-trimethyl-1H[1]benzopyrano[3,4-f]quinoline] was tested, and the Ki [1] was ≥ 10000 nM and the Ki [2] was 238 nM.
`COc1cccc2c1-c1ccc3c(c1[C@H](C1(C)CC=CCC1)O2)C(C)=CC(C)(C)N3` (stereo in doubt) [Example 152, rel (5S,3′S) 2,5-Dihydro-10-methoxy-5-(1-methyl-3-cyclohexenyl)-2,2,4-trimethyl-1H[1]benzopyrano[3,4-f]quinoline] was tested, and the Ki [1] was ≥ 10000 nM and the Ki [2] was 1.8 nM.
For `COc1cccc2c1-c1ccc3c(c1C([C@H]1C=C(CSC)CCC1)O2)C(C)=CC(C)(C)N3` (stereo in doubt) [Example 161], the Ki [1] was ≥ 10000 nM and the Ki [2] was 3.3 nM.
In the case of `COc1cccc2c1-c1ccc3c(c1C([C@@H]1C=C(COC(C)=O)CCC1)O2)C(C)=CC(C)(C)N3` (stereo in doubt) [Example 162], the Ki [1] is reported as ≥ 10000 nM and the Ki [2] is reported as 6.5 nM.
For `COc1cccc2c1-c1ccc3c(c1C([C@@H]1C=C(CSC)CCC1)O2)C(C)=CC(C)(C)N3` (stereo in doubt) [Example 166], the Ki [1] was 5630 nM and the Ki [2] was 8.16 nM.
With `COc1cccc2c1-c1ccc3c(c1C([C@H]1C=C(CN4CCOCC4)CCC1)O2)C(C)=CC(C)(C)N3` (stereo in doubt) [Example 167, rel (5R, 3′R) 2,5-Dihydro-10-methoxy-5-(1-(N-morpholino)methyl-3-cyclohexenyl)-2,2,4-trimethyl-1H-[1]benzopyrano[3,4-f]quinoline] the Ki [1] was ≥ 10000 nM and the Ki [2] was 21 nM.
For `COc1cccc2c1-c1ccc3c(c1C([C@@H]1C=C(CN(C)C)CCC1)O2)C(C)=CC(C)(C)N3` (stereo in doubt) [Example 169, rel (5R, 3′S) 2,5-Dihydro-10-methoxy-5-(1-(N,N dimethylamino)methyl-3-cyclohexenyl)-2,2,4-trimethyl-1H-[1]benzopyrano[3,4-f]quinoline], the Ki [1] was ≥ 10000 nM and the Ki [2] was 300 nM.
In the case of `COc1cccc2c1-c1ccc3c(c1C(c1ccccc1)O2)C(C)=CC(C)(C)N3` (stereo not shown) [Example 1, 2,5-Dihydro-10-methoxy-2,2,4-trimethyl-5-phenyl-1H-[1]benzopyrano[3,4-f]quinoline1H-[1]benzopyrano[3,4-f]quinoline], the Ki [1] is reported as ≥ 10000 nM and the Ki [2] is reported as 8.6 nM.
For `C=CCC1Oc2cccc(OC)c2-c2ccc3c(c21)C(C)=CC(C)(C)N3` (stereo not shown) [Example 2, 2,5-Dihydro-10-methoxy-2,2,4-trimethyl-5-(2-propenyl)-1H-[1]benzopyrano[3,4-f]quinoline], the Ki [1] was 1700 nM and the Ki [2] was 7.6 nM.
In the case of `C=CCC1Oc2cccc(NC)c2-c2ccc3c(c21)C(C)=CC(C)(C)N3` (stereo not shown) [Example 3, 2,5-Dihydro-2,2,4,N-tetramethyl-5-(2-propenyl)-1H-[1]benzopyrano[3,4-f]quinolin-10-amine], the Ki [1] is reported as 2650 nM and the Ki [2] is reported as 4.8 nM.
`C=CCC1Oc2cccc(C(=O)OC)c2-c2ccc3c(c21)C(C)=CC(C)(C)N3` (stereo not shown) [Example 4, Methyl 2,5-Dihydro-2,2,4-trimethyl-5-(2-propenyl)-1H-[1]benzopyrano[3,4-f]quinoline-10-carboxylate] gave a Ki [1] of 2960 nM and a Ki [2] of 7 nM.
In the case of `C=CCC1Oc2cccc(C=C)c2-c2ccc3c(c21)C(C)=CC(C)(C)N3` (stereo not shown) [Example 5, 10-Ethenyl-2,5-dihydro-2,2,4-trimethyl-5-(2-propenyl)-1H-[1]benzopyrano[3,4-f]quinoline], the Ki [1] is reported as ≥ 10000 nM and the Ki [2] is reported as 357 nM.
Work on `C#Cc1cccc2c1-c1ccc3c(c1C(CC=C)O2)C(C)=CC(C)(C)N3` (stereo not shown) [Example 6, 10-Ethynyl-2,5-dihydro-2,2,4-trimethyl-5-(2-propenyl)-1H-[1]benzopyrano[3,4-f]quinoline] yielded a Ki [1] of 321 nM and a Ki [2] of 3.8 nM.
`CC1=CC(C)(C)Nc2ccc3c(c21)C(c1ccccc1)Oc1cccc(O)c1-3` (stereo not shown) [Example 7, 2,5-Dihydro-2,2,4-trimethyl-5-phenyl-1H-[1]benzopyrano[3,4-f]quinolin-10-ol] showed a Ki [1] of 5680 nM and a Ki [2] of 4.3 nM.
For `C=CCC1Oc2cccc(OC(F)F)c2-c2ccc3c(c21)C(C)=CC(C)(C)N3` (stereo not shown) [Example 8, 10-(Difluoromethoxy)-2,5-dihydro-2,2,4-trimethyl-5-(2-propenyl)-1H-[1]benzopyrano[3,4-f]quinoline], the Ki [1] was 6010 nM and the Ki [2] was 168 nM.
